Assay results taken from patent US11236046B2, “Substituted heterocyclic sulfonamide compounds useful as TRPA1 modulators” (Genentech, Inc., priority 2013, dated 2022).

Molecular target: human TRPA1 (Homo sapiens (Human), UniProt O75762)
Experiment: FLIPR Tetra calcium influx assay, block of cinnamaldehyde-induced calcium influx in CHO cells expressing TRPA1 (human)
Format: cell-based
Details: 20 min compound incubation, 75 uM cinnamaldehyde (~EC80), Hill coefficient fixed to 1.5, read-out: hTRPA1 AUC IC50
Procedure, shortened: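 CHO cells loaded with calcium dye, preincubated with compounds 20 min at room temperature in HBSS/20 mM HEPES pH 7.4 with 0.02% BSA. Channels activated by ~EC80 cinnamaldehyde (75 uM human, 45 uM rat); block of calcium influx read on FLIPR Tetra, IC50 fitted with fixed Hill coefficient.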

Sequence of human TRPA1 (O75762 whole entry): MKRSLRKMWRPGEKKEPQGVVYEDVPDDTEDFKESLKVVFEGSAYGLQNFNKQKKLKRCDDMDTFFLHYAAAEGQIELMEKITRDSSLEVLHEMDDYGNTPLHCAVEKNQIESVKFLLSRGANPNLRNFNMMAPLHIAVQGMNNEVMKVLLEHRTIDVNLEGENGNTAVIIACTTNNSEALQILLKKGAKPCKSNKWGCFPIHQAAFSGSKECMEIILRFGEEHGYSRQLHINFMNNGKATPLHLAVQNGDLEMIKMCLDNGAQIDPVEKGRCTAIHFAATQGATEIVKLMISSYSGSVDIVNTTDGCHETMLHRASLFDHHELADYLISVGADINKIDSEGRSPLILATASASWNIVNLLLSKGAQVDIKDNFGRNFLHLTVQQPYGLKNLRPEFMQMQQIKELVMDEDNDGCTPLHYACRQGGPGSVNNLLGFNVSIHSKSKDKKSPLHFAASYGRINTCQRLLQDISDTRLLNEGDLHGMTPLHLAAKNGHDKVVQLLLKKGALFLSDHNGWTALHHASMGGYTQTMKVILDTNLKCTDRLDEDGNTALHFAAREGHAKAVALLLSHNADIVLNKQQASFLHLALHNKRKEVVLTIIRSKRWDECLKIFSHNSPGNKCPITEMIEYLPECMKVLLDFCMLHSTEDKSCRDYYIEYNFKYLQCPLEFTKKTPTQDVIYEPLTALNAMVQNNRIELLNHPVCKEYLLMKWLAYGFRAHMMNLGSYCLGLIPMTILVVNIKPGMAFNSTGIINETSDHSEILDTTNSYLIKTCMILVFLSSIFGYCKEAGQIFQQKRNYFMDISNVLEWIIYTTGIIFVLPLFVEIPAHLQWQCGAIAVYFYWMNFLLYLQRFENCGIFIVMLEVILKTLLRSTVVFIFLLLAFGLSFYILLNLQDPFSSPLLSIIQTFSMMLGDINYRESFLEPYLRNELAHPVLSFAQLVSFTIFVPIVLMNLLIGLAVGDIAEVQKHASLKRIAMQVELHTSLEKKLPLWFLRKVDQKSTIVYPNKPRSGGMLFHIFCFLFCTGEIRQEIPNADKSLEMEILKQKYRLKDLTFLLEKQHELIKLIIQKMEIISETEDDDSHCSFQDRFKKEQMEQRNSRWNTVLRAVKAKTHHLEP

Row | SMILES | IC50 [nM]
1 | O=C(NCc1cc(-c2cnc(C(F)(F)F)nc2)c(F)cn1)[C@@H]1C[C@@H](F)CN1S(=O)(=O)c1ccc(F)cc1 [Example 167, (2S,4R)-4-fluoro-N-((5-fluoro-4-(2-(trifluoromethyl)pyrimidin-5-yl)pyridin-2-yl)methyl)-1-(4-fluorophenylsulfonyl)pyrrolidine-2-carboxamide] | 38
2 | O=C(NCc1cc(-c2cnc(C(F)(F)F)nc2)ccn1)[C@@H]1[C@@H](F)CCN1S(=O)(=O)c1ccc(F)cc1 [Example 157, (2R,3S)-3-fluoro-1-(4-fluorophenyl)sulfonyl-N-[[4-[2-(trifluoromethyl)pyrimidin-5-yl]-2-pyridyl]methyl]pyrrolidine-2-carboxamide] | 103
3 | O=C(NCc1cc(-c2ccc(C(F)(F)F)cc2)ncn1)[C@@H]1C[C@@H](F)CN1S(=O)(=O)c1ccc(F)c(F)c1 [Example 150, (2S,4R)-1-(3,4-difluorophenylsulfonyl)-4-fluoro-N-((6-(4-(trifluoromethyl)phenyl)pyrimidin-4-yl)methyl)pyrrolidine-2-carboxamide] | 46
4 | O=C(NCc1cc(N2CCC(OC(F)(F)F)CC2)c(F)cn1)[C@@H]1C[C@@H](F)CN1S(=O)(=O)c1ccc(F)cc1 [Example 66, (2S,4R)-4-fluoro-1-(4-fluorophenyl)sulfonyl-N-[[5-fluoro-4-[4-(trifluoromethoxy)-1-piperidyl]-2-pyridyl]methyl]pyrrolidine-2-carboxamide] | 22
5 | C[C@@]1(F)C[C@@H](C(=O)NCc2cc(-c3ccc(C(F)(F)F)nc3)ncn2)N(S(=O)(=O)c2ccc(F)cc2)C1 (single isomer, unassigned) [Example 107] | 90
6 | C[C@@H]1CC[C@@H](C(=O)NCc2cc(-c3ccc(C(F)(F)F)nc3)ncn2)N1S(=O)(=O)c1ccc(F)cc1 [Example 39, (2S,5R)-1-[(4-fluorobenzene)sulfonyl]-5-methyl-N-([6-[6-(trifluoromethyl)pyridin-3-yl]pyrimidin-4-yl]methyl)pyrrolidine-2-carboxamide] | 45

Results, then the molecule that gave them:

Row | IC50 [nM] | SMILES
7 | 55 | O=C(NCc1cc(Cl)nc(-c2ccc(C(F)F)nc2)c1)[C@@H]1C[C@@H](F)CN1S(=O)(=O)c1ccc(F)cc1 [Example 60, (2S,4R)—N-[[2-chloro-6-[6-(difluoromethyl)-3-pyridyl]-4-pyridyl]methyl]-4-fluoro-1-(4-fluorophenyl)sulfonyl-pyrrolidine-2-carboxamide]
8 | 23 | N#Cc1cnc(CNC(=O)[C@@H]2C[C@@H](F)CN2S(=O)(=O)c2ccc(F)cc2)cc1-c1ccc(C(F)(F)F)cc1 [Example 70, (2S,4R)—N-((5-cyano-4-(4-(trifluoromethyl)phenyl)pyridin-2-yl)methyl)-4-fluoro-1-(4-fluorophenylsulfonyl)pyrrolidine-2-carboxamide]
9 | 52 | O=C(NCc1cc(F)nc(-c2ccc(C(F)(F)F)nc2)c1)[C@@H]1C[C@@H](F)CN1S(=O)(=O)c1ccc(F)cc1 [Example 119, (2S,4R)-4-fluoro-N-([2-fluoro-6-[6-(trifluoromethyl)pyridin-3-yl]pyridin-4-yl]methyl)-1-[(4-fluorobenzene)sulfonyl]pyrrolidine-2-carboxamide]
10 | 290 | O=C(NCc1ccnc(-c2cnc(C(F)(F)F)cn2)c1)[C@@H]1C[C@@H](F)CN1S(=O)(=O)c1ccc(F)cc1 [Example 67, (2S,4R)-4-fluoro-1-(4-fluorophenyl)sulfonyl-N-[[2-[5-(trifluoromethyl)pyrazin-2-yl]-4-pyridyl]methyl]pyrrolidine-2-carboxamide]
11 | 68 | O=C(NCc1cc(-c2ccc(C(F)(F)F)nc2)ncc1F)[C@@H]1C[C@@H](F)CN1S(=O)(=O)c1ccc(F)cc1 [Example 141, (2S,4R)-4-fluoro-N-((5-fluoro-6′-(trifluoromethyl)-2,3′-bipyridin-4-yl)methyl)-1-(4-fluorophenylsulfonyl)pyrrolidine-2-carboxamide]
